The numbers were not newly measured in patent publication US7608286B2, “Phyto-nutraceutical synergistic composition for hyperlipedemic condition” (priority 2006, dated 2009), which cites them from elsewhere.

For data set [1], the target named is T1, lanosterol 14alpha -demethylase (Homo sapiens, UniProt Q16850).
T1 sequence (Q16850 1-509): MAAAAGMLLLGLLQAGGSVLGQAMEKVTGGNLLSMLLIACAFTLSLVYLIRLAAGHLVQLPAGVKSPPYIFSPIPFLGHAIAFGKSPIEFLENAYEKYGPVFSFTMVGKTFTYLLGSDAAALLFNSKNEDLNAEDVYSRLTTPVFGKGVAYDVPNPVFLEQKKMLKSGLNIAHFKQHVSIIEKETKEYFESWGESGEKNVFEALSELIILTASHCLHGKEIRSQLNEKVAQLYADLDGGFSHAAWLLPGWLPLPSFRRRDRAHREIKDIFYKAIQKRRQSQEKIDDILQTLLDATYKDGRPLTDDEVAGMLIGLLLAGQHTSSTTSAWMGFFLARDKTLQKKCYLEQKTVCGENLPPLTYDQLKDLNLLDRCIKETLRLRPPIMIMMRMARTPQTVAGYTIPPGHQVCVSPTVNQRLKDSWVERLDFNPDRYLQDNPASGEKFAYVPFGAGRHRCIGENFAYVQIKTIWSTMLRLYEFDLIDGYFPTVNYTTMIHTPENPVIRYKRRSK

In data set [2] the test system is bacterial resistance mechanism (multidrug pump). Particulars: in the presence of 5′-MHC.
Data set [3] has as its system normolipidemic and hyperlipidemic patients with low HDL-C levels. Particulars: low dose (1.5 g/d).
Data set [4] concerns participants having low blood concentrations of HDL-C. Particulars: time-release.
In data set [5] the test system is apolipoprotein E-null mice. To be noted: evolving versus established.
Data set [6] has as its system cultured human liver (HepG2) cells.
Another data set deals with rats. To be noted: rat, in vivo.

`C/C(=C\CC[C@@H](C)[C@H]1CC[C@@]2(C)C3=CC[C@H]4C(C)(C)[C@@H](O)CC[C@]4(C)C3=CC[C@]12C)CO` [ganoderol B]: the “cholesterol biosynthesis / lanosterol 14alpha -demethylase” value in data set [1] is given as “inhibit cholesterol biosynthesis”.

With ganoderic acid, the “cholesterol biosynthesis / lanosterol 14alpha -demethylase” value in data set [1] is given as “inhibit cholesterol biosynthesis”.

In the case of `COc1cc([C@H]2Oc3cc(-c4cc(=O)c5c(O)cc(O)cc5o4)cc(OC)c3O[C@@H]2CO)ccc1O` (racemic) [5′-MHC, 5′-methoxyhydnocarpin], the “accumulation of berberine in the cells” value in data set [2] is listed as “strong increase”.

Take `O=C(O)c1cccnc1` [nicotinic acid, Nicotinic acid]: in data set [3], the “average increase in HDL-C levels” value is 20% and the triglyceride levels entry was “significantly lowers”. Also, in data set [4], the “change of total cholesterol concentrations” value was -20 mg/dL, the “decrease of low-density lipoprotein cholesterol levels” value is on record as 13%, the “decrease of the ratio of total cholesterol to HDL-C” value is recorded as 25% and the “decrease of total cholesterol concentrations” value is given as 9%. Moreover, in data set [4], the “decrease of triglyceride levels” value is reported as 20%, the “mean change of HDL-C levels” value was “+6 mg/dl” and the “mean increase of HDL-C levels” value is on record as 18%.

For `C/C(C=O)=C\CC[C@@H](C)[C@H]1CC[C@@]2(C)C3=CC[C@H]4C(C)(C)C(=O)CC[C@]4(C)C3=CC[C@]12C` [ganoderal A], in data set [1], the “cholesterol biosynthesis / lanosterol 14alpha -demethylase” value is given as “inhibit cholesterol biosynthesis”.

(−)-epigallocatechin gallate [EGCG]: the atherosclerotic lesions result in data set [5] was “differentially reduces evolving atherosclerotic lesions without influencing established atherosclerosis”. In data set [6], the “cellular cholesterol concentration lowered” value is 28%, the cellular cholesterol synthesis result is given as “significantly lowered” and the “increase of LDL receptor binding activity” value is given as 3 fold.

As for `C/C(=C\CC[C@@H](C)[C@H]1CC[C@@]2(C)C3=CC[C@H]4C(C)(C)C(=O)CC[C@]4(C)C3=CC[C@]12C)CO` [ganoderol A], in data set [1], the “cholesterol biosynthesis / lanosterol 14alpha -demethylase” value is given as “inhibit cholesterol biosynthesis”.

As to `Nc1ncnc2c1ncn2C[C@@H](O)[C@@H](O)C(=O)O` [Eritadenine], in the data set with rats, the “S-adenosylmethionine (SAM):S-adenosylhomocysteine (SAH) ratio in the liver” value is “significantly decreased”, the “phosphatidylcholine (PC):phosphatidylethanolamine ratio in liver microsomes” value is given as “significantly decreased” and the plasma cholesterol concentration result is listed as “significantly decreased”.
